In patent publication US12486267B2, “Imidazo[1,2-A]pyridine and [1,2,4]triazolo[1,5-A]pyridine derivatives as TLR9 inhibitors for the treatment of fibrosis” (BRISTOL-MYERS SQUIBB COMPANY, priority 2020, dated 2025) one finds IC50 data, which are given here for 11 compounds.

The structures appear in SMILES notation. Where only a bound is given, the exact number is not on record here.

Type in all cases: cell-based
The target of assay [1] is T1, human TLR7 (Homo sapiens, UniProt Q9NYK1).
T1 sequence (Q9NYK1 27-1049): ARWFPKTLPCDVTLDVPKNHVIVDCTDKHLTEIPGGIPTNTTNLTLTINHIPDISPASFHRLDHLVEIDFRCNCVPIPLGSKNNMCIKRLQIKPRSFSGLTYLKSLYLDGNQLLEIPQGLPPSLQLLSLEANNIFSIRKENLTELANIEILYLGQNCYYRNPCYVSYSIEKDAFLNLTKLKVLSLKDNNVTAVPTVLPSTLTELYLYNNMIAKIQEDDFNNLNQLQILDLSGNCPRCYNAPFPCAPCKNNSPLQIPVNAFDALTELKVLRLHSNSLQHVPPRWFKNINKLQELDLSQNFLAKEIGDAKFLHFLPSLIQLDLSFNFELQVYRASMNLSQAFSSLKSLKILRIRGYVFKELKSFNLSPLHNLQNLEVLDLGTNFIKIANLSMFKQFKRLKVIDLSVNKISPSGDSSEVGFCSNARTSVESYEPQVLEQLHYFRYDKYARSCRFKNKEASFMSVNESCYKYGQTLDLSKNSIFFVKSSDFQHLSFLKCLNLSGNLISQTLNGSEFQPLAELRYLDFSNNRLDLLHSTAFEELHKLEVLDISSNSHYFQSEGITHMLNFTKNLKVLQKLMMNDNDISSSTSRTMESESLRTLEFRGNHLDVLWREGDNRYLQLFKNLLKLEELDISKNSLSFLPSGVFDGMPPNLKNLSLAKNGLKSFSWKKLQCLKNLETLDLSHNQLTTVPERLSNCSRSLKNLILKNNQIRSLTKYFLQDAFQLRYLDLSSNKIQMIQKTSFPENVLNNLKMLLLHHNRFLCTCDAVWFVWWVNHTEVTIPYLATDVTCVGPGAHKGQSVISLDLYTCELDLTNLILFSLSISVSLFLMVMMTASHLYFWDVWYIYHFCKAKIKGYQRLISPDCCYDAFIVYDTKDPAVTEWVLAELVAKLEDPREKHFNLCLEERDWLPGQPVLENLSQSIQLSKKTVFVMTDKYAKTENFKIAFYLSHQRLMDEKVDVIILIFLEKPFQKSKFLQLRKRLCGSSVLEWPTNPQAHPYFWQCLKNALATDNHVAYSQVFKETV
Briefly: TLR7 inhibition reporter assay (HEK-Blue cells, SEAP reporter). Conditions: HEK-Blue cells overexpressing human TLR7; stimulated with gardiquimod 7.5 μM; 22 hour incubation; SEAP readout. In outline:
(§1)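 HEK-Blue cells with NF-κB/AP-1-driven SEAP pre-treated 30 min with compound (0.05 nM–50 μM), then stimulated with gardiquimod 7.5 μM (TLR7), R848 15.9 μM (TLR8) or ODN2006 5 nM (TLR9). SEAP detected after 22 h at 37 °C; percent inhibition relative to agonist-plus-DMSO and known-inhibitor wells.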
For orientation: A reporter such as luciferase makes a cellular process visible.

Assay [2] deals with T2, human TLR9 (Homo sapiens, UniProt Q9NR96).
T2 sequence (Q9NR96 26-1032): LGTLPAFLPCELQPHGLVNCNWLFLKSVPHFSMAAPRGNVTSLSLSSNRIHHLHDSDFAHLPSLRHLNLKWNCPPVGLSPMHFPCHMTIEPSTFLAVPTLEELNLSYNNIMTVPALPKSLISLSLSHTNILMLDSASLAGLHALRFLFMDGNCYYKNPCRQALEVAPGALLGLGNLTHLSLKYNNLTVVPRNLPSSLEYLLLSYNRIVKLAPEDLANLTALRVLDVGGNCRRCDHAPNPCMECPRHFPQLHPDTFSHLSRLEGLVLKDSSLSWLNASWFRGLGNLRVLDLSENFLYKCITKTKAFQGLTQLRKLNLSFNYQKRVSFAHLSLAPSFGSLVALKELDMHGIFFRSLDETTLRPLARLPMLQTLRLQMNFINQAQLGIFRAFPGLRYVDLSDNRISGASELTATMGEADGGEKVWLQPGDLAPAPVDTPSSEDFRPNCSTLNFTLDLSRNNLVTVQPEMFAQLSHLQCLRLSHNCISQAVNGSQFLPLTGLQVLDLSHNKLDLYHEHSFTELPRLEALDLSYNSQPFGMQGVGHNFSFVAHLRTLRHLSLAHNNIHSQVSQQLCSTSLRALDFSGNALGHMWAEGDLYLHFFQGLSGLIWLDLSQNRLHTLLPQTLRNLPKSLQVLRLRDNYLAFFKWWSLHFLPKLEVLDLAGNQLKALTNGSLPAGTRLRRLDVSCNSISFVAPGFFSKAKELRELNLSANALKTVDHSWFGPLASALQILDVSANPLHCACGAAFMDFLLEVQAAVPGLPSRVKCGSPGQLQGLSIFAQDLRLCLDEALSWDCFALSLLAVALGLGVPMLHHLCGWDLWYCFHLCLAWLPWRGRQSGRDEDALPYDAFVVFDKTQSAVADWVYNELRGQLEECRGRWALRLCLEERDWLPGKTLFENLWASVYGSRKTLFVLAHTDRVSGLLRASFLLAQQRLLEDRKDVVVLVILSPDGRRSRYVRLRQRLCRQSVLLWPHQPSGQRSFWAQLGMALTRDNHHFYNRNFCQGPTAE
Briefly: TLR9 inhibition reporter assay (HEK-Blue cells, SEAP reporter). Particulars: HEK-Blue cells overexpressing human TLR9; stimulated with ODN2006 5 nM; 22 hour incubation; SEAP readout. The essentials:
as §1

In assay [3] the target is T3, human TLR8 (Homo sapiens, UniProt Q9NR97).
T3 sequence (Q9NR97 27-1041): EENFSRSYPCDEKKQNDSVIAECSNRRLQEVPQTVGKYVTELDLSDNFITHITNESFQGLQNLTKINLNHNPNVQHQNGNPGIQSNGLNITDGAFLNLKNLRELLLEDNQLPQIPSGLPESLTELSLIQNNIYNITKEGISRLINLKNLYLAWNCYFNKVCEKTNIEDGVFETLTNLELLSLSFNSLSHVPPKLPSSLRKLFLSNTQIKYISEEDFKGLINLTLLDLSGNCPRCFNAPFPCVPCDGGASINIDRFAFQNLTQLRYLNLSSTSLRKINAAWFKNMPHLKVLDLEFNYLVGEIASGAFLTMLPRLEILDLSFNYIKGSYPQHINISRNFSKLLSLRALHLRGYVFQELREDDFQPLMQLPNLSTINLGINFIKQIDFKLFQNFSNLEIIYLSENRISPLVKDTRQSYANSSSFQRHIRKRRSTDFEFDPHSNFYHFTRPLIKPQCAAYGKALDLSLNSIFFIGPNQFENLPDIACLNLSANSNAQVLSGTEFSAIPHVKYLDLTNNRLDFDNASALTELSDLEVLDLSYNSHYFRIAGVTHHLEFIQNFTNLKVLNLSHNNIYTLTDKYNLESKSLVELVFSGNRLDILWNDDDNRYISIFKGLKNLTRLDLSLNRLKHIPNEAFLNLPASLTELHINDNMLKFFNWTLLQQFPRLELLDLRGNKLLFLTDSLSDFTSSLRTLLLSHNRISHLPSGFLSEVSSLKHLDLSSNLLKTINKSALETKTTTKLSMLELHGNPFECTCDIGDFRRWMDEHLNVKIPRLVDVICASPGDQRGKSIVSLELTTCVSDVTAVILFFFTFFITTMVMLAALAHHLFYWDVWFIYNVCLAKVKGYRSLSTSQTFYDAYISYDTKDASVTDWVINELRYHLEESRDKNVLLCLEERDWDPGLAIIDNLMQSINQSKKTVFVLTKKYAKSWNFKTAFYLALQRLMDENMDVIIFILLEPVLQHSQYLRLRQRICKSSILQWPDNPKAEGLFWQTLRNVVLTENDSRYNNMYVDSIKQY
Briefly: TLR8 inhibition reporter assay (HEK-Blue cells, SEAP reporter). Particulars: HEK-Blue cells overexpressing human TLR8; stimulated with R848 15.9 μM; 22 hour incubation; SEAP readout. In outline:
as §1

As usually defined, the IC50 is the concentration that inhibits the measured activity by half. Higher therefore signals a need for much substance.

As for `COc1ccc(-c2cn3c(n2)CCC(C2CCN(C4CCN(C(=O)C(C)C)CC4)CC2)C3)cc1OC` (single isomer, unassigned) [Example 40, 1-(4-(2-(3,4-dimethoxyphenyl)-5,6,7,8-tetrahydroimidazo[1,2-a]pyridin-6-yl)-[1,4′-bipiperidin]-1′-yl)-2-methylpropan-1-one], the IC50 was 38000 nM in assay [1], 185 nM in assay [2] and over 50000 nM in assay [3].

In the case of `COc1ccc(-c2cn3c(n2)CCC(C2CCN(C4CCN(C(=O)C(C)C)CC4)CC2)C3)cc1OC` (single isomer, unassigned) [Example 41, 1-(4-(2-(3,4-dimethoxyphenyl)-5,6,7,8-tetrahydroimidazo[1,2-a]pyridin-6-yl)-[1,4′-bipiperidin]-1′-yl)-2-methylpropan-1-one], the IC50 in assay [1] was over 50000 nM; in assay [2], 161 nM; in assay [3], over 50000 nM.

Regarding `COc1ccc(-c2cn3c(n2)CCC(C2CCN(C4CCN(C(=O)C5CC5)CC4)CC2)C3)cc1OC` (single isomer, unassigned) [Example 43, cyclopropyl(4-(2-(3,4-dimethoxyphenyl)-5,6,7,8-tetrahydroimidazo[1,2-a]pyridin-6-yl)-[1,4′-bipiperidin]-1′-yl)methanone], the 50% inhibitory concentration (IC50) was 45000 nM in assay [1], 375 nM in assay [2] and over 50000 nM in assay [3].

Consider `COc1ccc(-c2cn3c(n2)CCC(C2CCN(C4CCN(C(=O)C5CC5)CC4)CC2)C3)cc1OC` (single isomer, unassigned) [Example 44, cyclopropyl(4-(2-(3,4-dimethoxyphenyl)-5,6,7,8-tetrahydroimidazo[1,2-a]pyridin-6-yl)-[1,4′-bipiperidin]-1′-yl)methanone], for which the IC50 is 45000 nM in assay [1], 314 nM in assay [2] and over 50000 nM in assay [3].

`COc1ccc(-c2cn3c(n2)CCC(C2CCN(C4CC5(C4)CN(C(C)C)C5)CC2)C3)cc1OC` (single isomer, unassigned) [Example 46, 2-(3,4-dimethoxyphenyl)-6-(1-(2-isopropyl-2-azaspiro[3.3]heptan-6-yl)piperidin-4-yl)-5,6,7,8-tetrahydroimidazo[1,2-a]pyridine]: the IC50 in assay [1] is 30000 nM; in assay [2] it was 272 nM; in assay [3], over 50000 nM.

Turning to `COc1ccc(-c2cn3c(n2)CCC(C2CCN(C4CC5(C4)CN(C(C)C)C5)CC2)C3)cc1OC` (single isomer, unassigned) [Example 47, 2-(3,4-dimethoxyphenyl)-6-(1-(2-isopropyl-2-azaspiro[3.3]heptan-6-yl)piperidin-4-yl)-5,6,7,8-tetrahydroimidazo[1,2-a]pyridine], the IC50 was over 50000 nM in assay [1], 47 nM in assay [2] and over 50000 nM in assay [3].

Consider `COc1ccc(-c2cn3c(n2)CCC(C2CCN(C4CC5(C4)CN(C4CCC4)C5)CC2)C3)cc1OC` (single isomer, unassigned) [Example 49, 6-(1-(2-cyclobutyl-2-azaspiro[3.3]heptan-6-yl)piperidin-4-yl)-2-(3,4-dimethoxyphenyl)-5,6,7,8-tetrahydroimidazo[1,2-a]pyridine], for which the IC50 was 1800 nM in assay [1], 22 nM in assay [2] and over 50000 nM in assay [3].

Turning to `COc1ccc(-c2cn3c(n2)CCC(C2CCN(C4CC5(C4)CN(C4CCC4)C5)CC2)C3)cc1OC` (single isomer, unassigned) [Example 50, 6-(1-(2-cyclobutyl-2-azaspiro[3.3]heptan-6-yl)piperidin-4-yl)-2-(3,4-dimethoxyphenyl)-5,6,7,8-tetrahydroimidazo[1,2-a]pyridine], the results for the IC50 in assay [1], in assay [2] and in assay [3] were 5300 nM, 40 nM and over 50000 nM, respectively.

As for `COc1ccc(-c2cn3c(n2)CCC(C2CCN(C4CC5(C4)CN(CC(C)C)C5)CC2)C3)cc1OC` (single isomer, unassigned) [Example 53, 2-(3,4-dimethoxyphenyl)-6-(1-(2-isobutyl-2-azaspiro[3.3]heptan-6-yl)piperidin-4-yl)-5,6,7,8-tetrahydroimidazo[1,2-a]pyridine], the IC50 in assay [1] was 2600 nM; in assay [2], 22 nM; in assay [3], over 50000 nM.

For the compound `COc1ccc(-c2cn3c(n2)CCC(C2CCN(C4CC5(C4)CN(CC(C)C)C5)CC2)C3)cc1OC` (single isomer, unassigned) [Example 54, 2-(3,4-dimethoxyphenyl)-6-(1-(2-isobutyl-2-azaspiro[3.3]heptan-6-yl)piperidin-4-yl)-5,6,7,8-tetrahydroimidazo[1,2-a]pyridine], the figures for the IC50 in assay [1], in assay [2] and in assay [3] were 830 nM, 1.5 nM and over 50000 nM, respectively.

Regarding `COc1ccc(-c2cn3c(n2)CCC(C2CCN(C4CCN(CC5CC5)CC4)CC2)C3)cc1OC` (single isomer, unassigned) [Example 56, 6-(1′-(cyclopropylmethyl)-[1,4′-bipiperidin]-4-yl)-2-(3,4-dimethoxyphenyl)-5,6,7,8-tetrahydroimidazo[1,2-a]pyridine], the IC50 is 3800 nM in assay [1], 540 nM in assay [2] and over 50000 nM in assay [3].
